Activity calls are given as the source filed them.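 Rule for the calls: active = percent growth at or below 50%, meaning growth inhibited by at least half; inactive = percent growth above 50%.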
Legend:
Assay in all cases: cancer cell panel antiproliferative activity – NCI60 one-dose, 10 µM, STAT3 inhibitor project, profiling panel (AID 651573)
[1] = tested on: Non-Small Cell Lung Cancer EKVX; settings: SRB absorbance, 48 h, at 10 µM, stronger effect = lower value
Colon Cancer HCT-15 = settings: SRB absorbance, 48 h, at 10 µM, stronger effect = lower value
Colon Cancer HCT-116 = settings: SRB absorbance, 48 h, at 10 µM, stronger effect = lower value
[2] = tested on: Non-Small Cell Lung Cancer NCI-H23; settings: SRB absorbance, 48 h, at 10 µM, stronger effect = lower value
Leukemia MOLT-4 = settings: SRB absorbance, 48 h, at 10 µM, stronger effect = lower value
Melanoma LOX IMVI = settings: SRB absorbance, 48 h, at 10 µM, stronger effect = lower value
Ovarian Cancer OVCAR-3 = settings: SRB absorbance, 48 h, at 10 µM, stronger effect = lower value
Breast Cancer HS 578T = settings: SRB absorbance, 48 h, at 10 µM, stronger effect = lower value
[3] = tested on: Breast Cancer MDA-MB-231/ATCC; settings: SRB absorbance, 48 h, at 10 µM, stronger effect = lower value
Melanoma SK-MEL-2 = settings: SRB absorbance, 48 h, at 10 µM, stronger effect = lower value
Leukemia SR = settings: SRB absorbance, 48 h, at 10 µM, stronger effect = lower value
Melanoma MDA-MB-435 = settings: SRB absorbance, 48 h, at 10 µM, stronger effect = lower value
Colon Cancer HCC-2998 = settings: SRB absorbance, 48 h, at 10 µM, stronger effect = lower value
Ovarian Cancer SK-OV-3 = settings: SRB absorbance, 48 h, at 10 µM, stronger effect = lower value
Breast Cancer MDA-MB-468 = settings: SRB absorbance, 48 h, at 10 µM, stronger effect = lower value
Leukemia RPMI-8226 = settings: SRB absorbance, 48 h, at 10 µM, stronger effect = lower value
[4] = tested on: Non-Small Cell Lung Cancer NCI-H522; settings: SRB absorbance, 48 h, at 10 µM, stronger effect = lower value
Melanoma SK-MEL-5 = settings: SRB absorbance, 48 h, at 10 µM, stronger effect = lower value
Melanoma M14 = settings: SRB absorbance, 48 h, at 10 µM, stronger effect = lower value
Breast Cancer MCF7 = settings: SRB absorbance, 48 h, at 10 µM, stronger effect = lower value
Prostate Cancer DU-145 = settings: SRB absorbance, 48 h, at 10 µM, stronger effect = lower value
[5] = tested on: Ovarian Cancer NCI/ADR-RES; settings: SRB absorbance, 48 h, at 10 µM, stronger effect = lower value
Ovarian Cancer OVCAR-8 = settings: SRB absorbance, 48 h, at 10 µM, stronger effect = lower value
[6] = tested on: Non-Small Cell Lung Cancer NCI-H460; settings: SRB absorbance, 48 h, at 10 µM, stronger effect = lower value
CNS Cancer U251 = settings: SRB absorbance, 48 h, at 10 µM, stronger effect = lower value
Renal Cancer 786-0 = settings: SRB absorbance, 48 h, at 10 µM, stronger effect = lower value
Renal Cancer SN12C = settings: SRB absorbance, 48 h, at 10 µM, stronger effect = lower value
Colon Cancer COLO 205 = settings: SRB absorbance, 48 h, at 10 µM, stronger effect = lower value, 0 = no net growth, negative = cell kill
[7] = tested on: Non-Small Cell Lung Cancer HOP-62; settings: SRB absorbance, 48 h, at 10 µM, stronger effect = lower value, 0 = no net growth, negative = cell kill
Colon Cancer SW-620 = settings: SRB absorbance, 48 h, at 10 µM, stronger effect = lower value, 0 = no net growth, negative = cell kill
CNS Cancer SNB-19 = settings: SRB absorbance, 48 h, at 10 µM, stronger effect = lower value
Renal Cancer TK-10 = settings: SRB absorbance, 48 h, at 10 µM, stronger effect = lower value
CNS Cancer SF-295 = settings: SRB absorbance, 48 h, at 10 µM, stronger effect = lower value
Renal Cancer RXF 393 = settings: SRB absorbance, 48 h, at 10 µM, stronger effect = lower value
Renal Cancer A498 = settings: SRB absorbance, 48 h, at 10 µM, stronger effect = lower value
Leukemia CCRF-CEM = settings: SRB absorbance, 48 h, at 10 µM, stronger effect = lower value
[8] = tested on: Non-Small Cell Lung Cancer HOP-92; settings: SRB absorbance, 48 h, at 10 µM, stronger effect = lower value, 0 = no net growth, negative = cell kill
Colon Cancer KM12 = settings: SRB absorbance, 48 h, at 10 µM, stronger effect = lower value
CNS Cancer SNB-75 = settings: SRB absorbance, 48 h, at 10 µM, stronger effect = lower value
Leukemia K-562 = settings: SRB absorbance, 48 h, at 10 µM, stronger effect = lower value
Renal Cancer CAKI-1 = settings: SRB absorbance, 48 h, at 10 µM, stronger effect = lower value
Melanoma UACC-62 = settings: SRB absorbance, 48 h, at 10 µM, stronger effect = lower value, 0 = no net growth, negative = cell kill
Breast Cancer BT-549 = settings: SRB absorbance, 48 h, at 10 µM, stronger effect = lower value, 0 = no net growth, negative = cell kill
[9] = tested on: Non-Small Cell Lung Cancer NCI-H226; settings: SRB absorbance, 48 h, at 10 µM, stronger effect = lower value
Prostate Cancer PC-3 = settings: SRB absorbance, 48 h, at 10 µM, stronger effect = lower value
Melanoma SK-MEL-28 = settings: SRB absorbance, 48 h, at 10 µM, stronger effect = lower value
[10] = tested on: Non-Small Cell Lung Cancer A549/ATCC; settings: SRB absorbance, 48 h, at 10 µM, stronger effect = lower value
Melanoma UACC-257 = settings: SRB absorbance, 48 h, at 10 µM, stronger effect = lower value
CNS Cancer SF-268 = settings: SRB absorbance, 48 h, at 10 µM, stronger effect = lower value
Melanoma MALME-3M = settings: SRB absorbance, 48 h, at 10 µM, stronger effect = lower value
[11] = tested on: Non-Small Cell Lung Cancer NCI-H322M; settings: SRB absorbance, 48 h, at 10 µM, stronger effect = lower value
Ovarian Cancer OVCAR-4 = settings: SRB absorbance, 48 h, at 10 µM, stronger effect = lower value

## COc1ccc(C(=O)C2CCN(c3ncnc4sccc34)CC2)cc1
[1]
  percent growth: 34.9%
Colon Cancer HCT-15
  percent growth: 72.4% (inactive)
Colon Cancer HCT-116
  percent growth: 34.4%
[2]
  percent growth: 53.4% (inactive)
Leukemia MOLT-4
  percent growth: 57.7% (inactive)
Melanoma LOX IMVI
  percent growth: 40.1%
Ovarian Cancer OVCAR-3
  percent growth: 97.1% (inactive)
Breast Cancer HS 578T
  percent growth: 93.6% (inactive)
[3]
  percent growth: 77.8% (inactive)
Melanoma SK-MEL-2
  percent growth: 76% (inactive)
Leukemia SR
  percent growth: 47.9%
Melanoma MDA-MB-435
  percent growth: 66.6% (inactive)
Colon Cancer HCC-2998
  percent growth: 82.3% (inactive)
Ovarian Cancer SK-OV-3
  percent growth: 89.9% (inactive)
Breast Cancer MDA-MB-468
  percent growth: 18.9%
Leukemia RPMI-8226
  percent growth: 27.7%
[4]
  percent growth: 49.2%
Melanoma SK-MEL-5
  percent growth: 26.5%
Melanoma M14
  percent growth: 78.5% (inactive)
Breast Cancer MCF7
  percent growth: 55.4% (inactive)
Prostate Cancer DU-145
  percent growth: 98.8% (inactive)
[5]
  percent growth: 43.5%
Ovarian Cancer OVCAR-8
  percent growth: 64% (inactive)
[6]
  percent growth: 71% (inactive)
CNS Cancer U251
  percent growth: 77.5% (inactive)
Renal Cancer 786-0
  percent growth: 72.4% (inactive)
Renal Cancer SN12C
  percent growth: 71.2% (inactive)
Colon Cancer COLO 205
  percent growth: 88.2% (inactive)
[7]
  percent growth: 91.9% (inactive)
Colon Cancer SW-620
  percent growth: 90.8% (inactive)
CNS Cancer SNB-19
  percent growth: 64.8% (inactive)
Renal Cancer TK-10
  percent growth: 73.3% (inactive)
CNS Cancer SF-295
  percent growth: 57.1% (inactive)
Renal Cancer RXF 393
  percent growth: 102% (inactive)
Renal Cancer A498
  percent growth: 91.7% (inactive)
Leukemia CCRF-CEM
  percent growth: 42.3%
[8]
  percent growth: 61.7% (inactive)
Colon Cancer KM12
  percent growth: 87.9% (inactive)
CNS Cancer SNB-75
  percent growth: 104% (inactive)
Leukemia K-562
  percent growth: 41.4%
Renal Cancer CAKI-1
  percent growth: 66.4% (inactive)
Melanoma UACC-62
  percent growth: 52.7% (inactive)
Breast Cancer BT-549
  percent growth: 53.4% (inactive)
[9]
  percent growth: 88.8% (inactive)
Prostate Cancer PC-3
  percent growth: 76.9% (inactive)
Melanoma SK-MEL-28
  percent growth: 105% (inactive)
[10]
  percent growth: 74.5% (inactive)
Melanoma UACC-257
  percent growth: 63.7% (inactive)
CNS Cancer SF-268
  percent growth: 85.4% (inactive)

## COc1ccc(CC2CCN(c3ncnc4sccc34)CC2)cc1
[1]
  percent growth: 39.9%
Colon Cancer HCT-15
  percent growth: 73.7% (inactive)
Melanoma MALME-3M
  percent growth: 127% (inactive)
Colon Cancer HCT-116
  percent growth: 34.9%
[2]
  percent growth: 46.8%
Leukemia MOLT-4
  percent growth: 66% (inactive)
Melanoma LOX IMVI
  percent growth: 34.4%
Ovarian Cancer OVCAR-3
  percent growth: 94.1% (inactive)
Breast Cancer HS 578T
  percent growth: 90.1% (inactive)
[3]
  percent growth: 79.8% (inactive)
Melanoma SK-MEL-2
  percent growth: 71.3% (inactive)
[11]
  percent growth: 66.6% (inactive)
Leukemia SR
  percent growth: 72.5% (inactive)
Melanoma MDA-MB-435
  percent growth: 66.9% (inactive)
Colon Cancer HCC-2998
  percent growth: 88.5% (inactive)
Ovarian Cancer SK-OV-3
  percent growth: 87.5% (inactive)
Breast Cancer MDA-MB-468
  percent growth: 21.3%
Leukemia RPMI-8226
  percent growth: 25.4%
[4]
  percent growth: 48.5%
Melanoma SK-MEL-5
  percent growth: 31.8%
Melanoma M14
  percent growth: 87.5% (inactive)
Breast Cancer MCF7
  percent growth: 55.5% (inactive)
Prostate Cancer DU-145
  percent growth: 99.4% (inactive)
[5]
  percent growth: 43.4%
Ovarian Cancer OVCAR-8
  percent growth: 65.4% (inactive)
[6]
  percent growth: 62.4% (inactive)
Ovarian Cancer OVCAR-4
  percent growth: 50.7% (inactive)
CNS Cancer U251
  percent growth: 73.2% (inactive)
Renal Cancer 786-0
  percent growth: 65.6% (inactive)
Renal Cancer SN12C
  percent growth: 72.9% (inactive)
Colon Cancer COLO 205
  percent growth: 95% (inactive)
[7]
  percent growth: 93.6% (inactive)
Colon Cancer SW-620
  percent growth: 86.9% (inactive)
CNS Cancer SNB-19
  percent growth: 69.3% (inactive)
Renal Cancer TK-10
  percent growth: 80.4% (inactive)
CNS Cancer SF-295
  percent growth: 59% (inactive)
Renal Cancer RXF 393
  percent growth: 108% (inactive)
Renal Cancer A498
  percent growth: 96.1% (inactive)
Leukemia CCRF-CEM
  percent growth: 51% (inactive)
[8]
  percent growth: 75.4% (inactive)
Colon Cancer KM12
  percent growth: 91.7% (inactive)
CNS Cancer SNB-75
  percent growth: 100% (inactive)
Leukemia K-562
  percent growth: 41.1%
Renal Cancer CAKI-1
  percent growth: 66.3% (inactive)
Melanoma UACC-62
  percent growth: 54.8% (inactive)
Breast Cancer BT-549
  percent growth: 56% (inactive)
[9]
  percent growth: 82% (inactive)
Prostate Cancer PC-3
  percent growth: 81.5% (inactive)
Melanoma SK-MEL-28
  percent growth: 108% (inactive)
[10]
  percent growth: 64.2% (inactive)
Melanoma UACC-257
  percent growth: 67.2% (inactive)
CNS Cancer SF-268
  percent growth: 93.2% (inactive)

Reference: PubChem BioAssay AID651573 (The Scripps Research Institute Molecular Screening Center, 2012)
